US8883963B2 (Cadila Healthcare Limited, priority 2007, dated 2014)
Non-standard residues stand in square brackets, D forms with d. Residues, ends and D or L forms follow the SMILES beside them. ξ: configuration not given here. *: point of attachment. X9 = CCc1cc(OC)ccc1-c1ccc(CC(NC(=S)[C@H](CC(=O)O)N*)C(=S)NC(CCCc2ccccc2F)C(N)=O)cc1; ξBip(2'-Et-4'-OMe) = CCc1cc(OC)ccc1-c1ccc(CC(N)C(=O)O)cc1; ξαMePhe(2-F) = CC(N)(Cc1ccccc1F)C(=O)O; ξhhPhe = NC(CCCc1ccccc1)C(=O)O; ξαMeP = CC1(C(=O)O)CCCN1; Aib = CC(C)(N)C(=O)O; Moc = COC(=O)*

Target: T1, human glucagon receptor (Homo sapiens, UniProt P47871)
T1 construct: The full-length cDNA was cloned in pcDNA3.1 (Invitrogen); expressed in transfected cells
Assay: In vitro human glucagon antagonist activity (inhibition of cAMP production) in CHO/human glucagon R cells
Format: cell-based
Conditions: with saturated concentration of glucagon peptide
Method: The CHO-K1 cells (CRL 9618) were obtained from American Type Culture Collection (Rockville, Md.). CHO cells were grown in Ham's F12 medium containing L-Glutamine (2 mM), HEPES (25 mM), NaHCO3 (1.1 g/L) and supplemented with newborn Calf Serum (NBCS; 10%), Penicillin (50 U/ml (v/v)) and Streptomycin (50 ug/ml (v/v)). Cells were split every 3 days 1:8.
The full-length cDNA was cloned in pcDNA3.1 (Invitrogen). […] Clones expressing the receptor were generated by G418 (800 μg/ml active, Sigma) selection. The stable clones were thereafter maintained at 500 ug/ml (G418). The selected clone was used between passages 9-25 for cAMP assays.
The cells were trypsinized using 2 ml of TPVG (0.25% trypsin, 0.53 mM EDTA, 1.38-mM glucose). The trypsin was inactivated using Ham's F12 medium containing 10% NBCS and the cells were suspended in 2 ml of complete medium. […] The medium was aspirated off from the 12 well plate and the cells were washed once using Ham's F12 (plain). The cells were incubated at 37° C. with 500 ul of Ham's F12+1% BSA+0.125 mM RO-20 for 30 min. […] After the incubation, the medium was removed and cells were washed once with plain Ham's F12. Subsequently, the cells were lysed by adding 500 ul of ice cold 0.1 N HCl to each well and shaking for 30 minutes at 200 rpm. The cells were then scrapped, the lysate was collected in micro centrifuge tubes and centrifuged at 12000 rpm for 10 min to remove the debris. 300 ul of supernatant from each micro-centrifuge tube was then removed into a glass tube and dried under N2 for 30 min, for cAMP estimation. The total cAMP was estimated from the sample according to the manufacturer's protocol using Cyclic AMP immunoassay kit (R&D systems, Minneapolis. MN). The remaining supernatant is used to determine the protein concentration using micro BCA (Sigma). Data is calculated as percent of control (Vehicle: water) and expressed as Mean+SD.

T1 sequence (P47871 26-477): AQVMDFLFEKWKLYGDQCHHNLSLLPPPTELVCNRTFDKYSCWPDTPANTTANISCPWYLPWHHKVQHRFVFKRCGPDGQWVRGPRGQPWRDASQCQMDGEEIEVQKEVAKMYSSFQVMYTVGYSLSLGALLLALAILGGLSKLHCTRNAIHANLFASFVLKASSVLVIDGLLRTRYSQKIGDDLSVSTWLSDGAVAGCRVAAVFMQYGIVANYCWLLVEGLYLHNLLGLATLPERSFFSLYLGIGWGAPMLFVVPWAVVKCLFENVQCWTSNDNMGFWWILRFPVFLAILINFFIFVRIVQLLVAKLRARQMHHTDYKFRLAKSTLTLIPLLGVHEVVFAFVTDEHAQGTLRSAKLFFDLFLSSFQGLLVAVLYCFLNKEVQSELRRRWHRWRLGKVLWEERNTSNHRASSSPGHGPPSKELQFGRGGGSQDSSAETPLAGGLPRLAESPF

Row | SMILES | Human Glucagon receptor antagonistic activity shown as inhibition of cAMP production of Glucagon peptide (1 nM test compound) | Human Glucagon receptor antagonistic activity shown as inhibition of cAMP production of Glucagon peptide (10 nM test compound) | Human Glucagon receptor antagonistic activity shown as inhibition of cAMP production of Glucagon peptide (100 nM test compound) | Human Glucagon receptor antagonistic activity shown as inhibition of cAMP production of Glucagon peptide (1 μM test compound) | Human Glucagon receptor antagonistic activity shown as inhibition of cAMP production of Glucagon peptide (10 μM test compound)
1 | CCc1cc(OC)ccc1-c1ccc(CC(NC(=O)[C@H](CC(=O)O)NC(=O)[C@H](CO)NC(=O)[C@@H](NC(=O)[C@H](Cc2ccccc2)NC(=O)[C@@H](NC(=O)CNC(=O)[C@H](CCC(N)=O)NC(=O)C2(C)CCCN2C(=O)[C@@H](N)Cc2c[nH]cn2)[C@@H](C)O)[C@@H](C)O)C(=O)NC(CCCc2ccccc2)C(N)=O)cc1 (stereo partly shown) [compound 9] (H-H[ξαMeP]QGTFTSD[ξBip(2'-Et-4'-OMe)][ξhhPhe]-NH2) | 5 ± 0.02 pmol/ml/μg prt | 3 ± 0.15 pmol/ml/μg prt | 0 pmol/ml/μg prt | 0 pmol/ml/μg prt | 0 pmol/ml/μg prt
2 | CCc1cc(OC)ccc1-c1ccc(CC(NC(=O)[C@H](CC(=O)O)NC(=O)[C@H](CO)NC(=O)[C@@H](NC(=O)[C@H](Cc2ccccc2)NC(=O)[C@@H](NC(=O)CNC(=O)[C@H](CCC(N)=O)NC(=O)C2(NC(=O)[C@@H](N)Cc3c[nH]cn3)CCCC2)[C@@H](C)O)[C@@H](C)O)C(=O)NC(CCCc2ccc(Cl)cc2C)C(N)=O)cc1 (single isomer, unassigned) [compound 28] | 14 ± 0.02 pmol/ml/μg prt | 11 ± 0.03 pmol/ml/μg prt | 7 ± 0.22 pmol/ml/μg prt | 3 ± 0.12 pmol/ml/μg prt | 0 pmol/ml/μg prt
3 | CCc1cc(OC)ccc1-c1ccc(CC(CNC(CCCc2ccccc2F)C(N)=O)NC[C@H](CC(=O)O)NC(=O)[C@H](CO)NC(=O)[C@@H](NC(=O)C(C)(Cc2ccccc2F)NC(=O)[C@@H](NC(=O)CNC(=O)[C@H](CCC(N)=O)NC(=O)C(C)(C)NC(=O)[C@H](Cc2c[nH]cn2)NC(C)=O)[C@H](C)O)[C@H](C)O)cc1 (single isomer, unassigned) [compound 199] | 4 ± 0.06 pmol/ml/μg prt | 3 ± 0.11 pmol/ml/μg prt | 0 pmol/ml/μg prt | 0 pmol/ml/μg prt | 0 pmol/ml/μg prt
4 | CCc1cc(OC)ccc1-c1ccc(CC(NC(=O)[C@H](CC(=O)O)NC(=O)[C@H](CO)NC(=O)[C@@H](NC(=O)[C@H](Cc2ccccc2)NC(=O)[C@@H](NC(=O)CNC(=O)[C@H](CCC(N)=O)NC(=O)C2(C)CCCN2C(=O)[C@@H](N)Cc2c[nH]cn2)[C@@H](C)O)[C@@H](C)O)C(=O)NC(CCCc2cccc(Cl)c2)C(N)=O)cc1 (single isomer, unassigned) [compound 11] | 3 ± 0.04 pmol/ml/μg prt | 0 pmol/ml/μg prt | 0 pmol/ml/μg prt | 0 pmol/ml/μg prt | 0 pmol/ml/μg prt
5 | CCc1cc(OC)ccc1-c1ccc(CC(NC(=S)[C@H](CC(=O)O)NC(=O)[C@H](CO)NC(=O)[C@@H](NC(=O)C(C)(Cc2ccccc2F)NC(=O)[C@@H](NC(=O)CNC(=O)[C@H](CCC(N)=O)NC(=O)C(C)(C)NC(=O)[C@H](Cc2c[nH]cn2)NC(=O)OC)[C@@H](C)O)[C@@H](C)O)C(=S)NC(CCCc2ccccc2F)C(N)=O)cc1 (stereo partly shown) [compound 172] (Moc-H[Aib]QGT[ξαMePhe(2-F)]TS-X9) | 4 ± 0.16 pmol/ml/μg prt | 2 ± 0.11 pmol/ml/μg prt | 0 pmol/ml/μg prt | 0 pmol/ml/μg prt | 0 pmol/ml/μg prt
